These are literature values, as cited in patent US10154968B2, “Buprenorphine nanoparticle composition and methods thereof” (AUBURN UNIVERSITY, priority 2012, dated 2018).

Structures are written as SMILES.

With `CO[C@@]12CC[C@@]3(C[C@@H]1[C@](C)(O)C(C)(C)C)[C@H]1Cc4ccc(O)c5c4[C@@]3(CCN1CC1CC1)[C@H]2O5` [Buprenorphine, (25)-2-[(5R,6R,7R,145)-9α-Cyclopropylmethyl-4,5-epoxy-6,14-ethano-3-hydroxy-6-methoxymorphinan-7-yl]-3,3-dimethylbutan-2-ol], the half-life result (background statement) was “approximately two”. Moreover, the “excreted unchanged in the urine” value (previous studies) is 27%.
